Where two headings read alike, the source gives them in different places.
Tests used:
[1] = molecular target: full-length human RORγt (Homo sapiens (Human), UniProt P51449); experiment: RORγt (full-length human) reporter assay, Conditions B or C; type: cell-based; conditions: for RORγt (FL) Reporter Assay B or C, % inhibition (value marked *): marked *: footnote not given; for inhibition at 6 µM: read-out: RORγt (FL) Reporter Assay B or C, % inhibition @ 6 μM, Conditions B or C
Outline: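 Readout is dual luciferase: firefly (GAL4-driven) normalized to DMSO-only and saturating-reference controls, then to CMV-Renilla. Full-length human RORγt fused to GAL4-DBD was transiently expressed in HEK293T; compound exposure ran overnight (16-20 h) starting 4-6 h after transfection, final FBS 1.3%, DMSO 0.1%.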

[2] = tested on: IL-17 production by CD4 T cells; experiment: Human Th17 assay; type: cell-based
Description: The human Th17 assay tests the effect of RORγt modulatory compounds on IL-17 production by CD4 T cells under conditions which favor Th17 differentiation. Total CD4^+ T cells were isolated from the peripheral blood mononuclear cells (PBMC) of healthy donors using a CD4^+ T cell isolation kit II, following the manufacturer's instructions (Miltenyi Biotec). Cells were resuspended in a medium of RPMI-1640 supplemented with 10% fetal bovine serum, penicillin, streptomycin, glutamate, and β-mercaptoethanol and were added to 96-well plates at 1.5×10^5 per 100 μL per well. 50 μL of compound at titrated concentrations in DMSO were added into each well at final DMSO concentration at 0.2%. Cells were incubated for 1 hour, then 50 μL of Th17 cell differentiation medium was added to each well. The final concentrations of antibodies and cytokines (R&D Systems) in differentiation medium were: 3×10^6/mL anti-CD3/CD28 beads (prepared using human T cell activation/expansion kit, Miltenyi Biotec), 10 μg/mL anti-IL4, 10 μg/mL anti-IFNγ, 10 ng/mL IL1β, 10 ng/mL IL23, 50 ng/mL IL6, 3 ng/mL TGFβ and 20 U/mL IL2. Cells were cultured at 37° C. and 5% CO2 for 3 days. Supernatants were collected and the accumulated IL-17 in culture was measured by using MULTI-SPOT® Cytokine Plate following manufacture's instruction (Meso Scale Discovery). The plate was read using Sector Imager 6000, and IL-17 concentration was extrapolated from the standard curve. The IC50s were determined by GraphPad.

[3] = read-out: Human Th17 Assay, IC50 (μM)
[4] = Conditions B or C, read-out: RORγt (FL) Reporter Assay B or C, IC50
[5] = read-out: Human Th17 Assay, IC50

Chain of full-length human RORγt (P51449 other isoform, or with tags, fused parts or gaps): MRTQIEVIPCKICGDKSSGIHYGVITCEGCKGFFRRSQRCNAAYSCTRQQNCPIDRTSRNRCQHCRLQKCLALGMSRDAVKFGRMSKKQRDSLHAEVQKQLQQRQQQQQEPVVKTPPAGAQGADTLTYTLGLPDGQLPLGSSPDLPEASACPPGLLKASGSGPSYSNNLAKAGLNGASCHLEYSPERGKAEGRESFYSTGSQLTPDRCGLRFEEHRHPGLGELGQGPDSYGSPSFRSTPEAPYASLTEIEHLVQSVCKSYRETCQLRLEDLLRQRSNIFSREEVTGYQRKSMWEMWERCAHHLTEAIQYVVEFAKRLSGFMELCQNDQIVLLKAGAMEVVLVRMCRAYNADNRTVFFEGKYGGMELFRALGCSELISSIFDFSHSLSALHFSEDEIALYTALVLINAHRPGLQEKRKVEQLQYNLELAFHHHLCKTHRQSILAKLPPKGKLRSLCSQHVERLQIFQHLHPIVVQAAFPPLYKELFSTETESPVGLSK

SMILES | RORγt (FL) Reporter Assay B or C, % inhibition (value marked *) ([1]; Conditions B or C) | IC50 ([1]; RORγt (FL) Reporter Assay B or C, IC50 (μM), Conditions B or C) [µM] | IC50 [2, 3] [µM] | IC50 [1, 4] [µM] | IC50 [2, 5] [µM] | inhibition at 6 µM [1] [%] | inhibition at 3 µM ([1]; at 3 μM compound concentration, read-out: RORγt (FL) Reporter Assay B or C, % inhibition) [%] | IC50 ([1]; read-out: RORγt (FL) Reporter Assay B or C, IC50) [µM]
CC(C)(O)CNC(=O)c1nc(C(=O)N2C3CCC2CC3)c(-c2cnc(NC3(C)CCC3)cc2C(F)F)s1 [Example 169, 4-((1s,4s)-7-Azabicyclo[2.2[1]heptane-7-carbonyl)-5-(4-(difluoromethyl)-6-((1-methylcyclobutyl)amino)pyridine-3-yl)-N-(2-hydroxy-2-methylpropyl))thiazole-2-carboxamide] | 94* % | 0.012 | 0.034 | – | – | – | – | –
C[C@H](NC(=O)c1nc(C(=O)N2CCC[C@@H]2C)c(-c2cnc(N[C@@H](C)C(F)(F)F)cc2C(F)F)s1)C(C)(C)O [Example 199, 5-(4-(Difluoromethyl)-6-(((S)-1,1,1-trifluoropropan-2-yl)amino)pyridine-3-yl)-N—((S)-3-hydroxy-3-methylburan-2-yl)-4-((S)-2-methylpyrrolidine-1-carbonyl)thiazole-2-carboxamide] | 94* % | – | – | 0.12 | 0.1 | – | – | –
C[C@H](Nc1cc(C(F)(F)F)c(-c2sc(C(=O)NCC(C)(C)O)nc2C(=O)N2CC(F)(F)C[C@@H]2C)cn1)C1CC1 [Example 142, 5-(6-(((S)-1-Cyclopropylethyl)amino)-4-(trifluormethyl)pyridin-3-yl)-4-((S)-4,4-difluoro-2-methylpyrrolidine-1-carbonyl)-N-(2-hydroxy-2-methylpropyl)thiazole-2-carboxamide] | 109* % | – | – | 0.027 | 0.019 | – | – | –
C[C@H]1CCCCN1C(=O)c1nc(C(=O)NCC(C)(C)O)sc1-c1cnc(NC2CCCC2)cc1C(F)F [Example 41, (S)-5-(6-(Cyclopentylamino)-4-(difluoromethyl)pyridin-3-yl)-N-(2-hydroxy-2-methylpropyl)-4-(2-methylpiperidine-1-carbonyl)thiazole-2-carboxamide] | – | – | – | 0.0076 | 0.043 | 103 | – | –
C[C@H](Nc1cc(C(F)(F)F)c(-c2sc(C(=O)NCC(C)(C)O)nc2C(=O)N2CCC[C@@H]2C)cn1)C1CC1 [Example 40, 5-(6-(((S)-1-Cyclopropylethyl)amino)-4-(trifluoromethyl)pyridin-3-yl)-N-(2-hydroxy-2-methylpropyl)-4-((S)-2-methylpyrrolidine-1-carbonyl)thiazole-2-carboxamide] | – | – | – | 0.013 | 0.056 | 102 | – | –
C[C@H]1CCCN1C(=O)c1nc(C(=O)NCC(C)(C)O)sc1-c1cnc(NC(C)(C)C)cc1C(F)(F)F [Example 52, (S)-5-(6-(tert-Butylamino)-4-(trifluoromethyl)pyridin-3-yl)-N-(2-hydroxy-2-methylpropyl)-4-(2-methylpyrrolidine-1-carbonyl)thiazole-2-carboxamide] | 106* % | – | – | 0.0088 | 0.01 | – | – | –
C[C@H]1CCCN1C(=O)c1nc(C(=O)NCC(C)(C)O)sc1-c1cnc(NCC(C)(C)C)cc1C(F)(F)F [Example 87, (S)—N-(2-Hydroxy-2-methylpropyl)-4-(2-methylpyrrolidine-1-carbonyl)-5-(6-(neopentylamino)-4-(trifluoromethyl)pyridin-3-yl)thiazole-2-carboxamide] | 140* % | – | – | 0.029 | 0.025 | – | – | –
CC[C@H](Nc1cc(C(F)F)c(-c2sc(C(=O)NCC(C)(C)O)nc2C(=O)N2CC(F)(F)C[C@@H]2C)cn1)C(F)(F)F [Example 90, 4-((S)-4,4-Difluoro-2-methylpyrrolidine-1-carbonyl)-5-(4-(difluoromethyl)-6-(((S)-1,1,1-trifluorobutan-2-yl)amino)pyridin-3-yl)-N-(2-hydroxy-2-methylpropyl)thiazole-2-carboxamide] | 86* % | – | – | 0.11 | 0.076 | – | – | –
C[C@H](Nc1cc(C(F)F)c(-c2sc(C(=O)NCC(C)(C)O)nc2C(=O)N2CCCC[C@@H]2C)cn1)C(F)(F)F [Example 144] | 106* % | – | – | 0.076 | 0.013 | – | – | –
CC[C@H](Nc1cc(C(F)(F)F)c(-c2sc(C(=O)NCC(C)(C)O)nc2C(=O)N2CCC[C@@H]2C)cn1)C1CC1 (relative stereo) [Example 128, 5-(6-(((S*)-1-Cyclopropylpropyl)amino)-4-(trifluoromethyl)pyridin-3-yl)-N-(2-hydroxy-2-methylpropyl)-4-((S)-2-methylpyrrolidine-1-carbonyl)thiazole-2-carboxamide] | 107* % | – | – | 0.023 | 0.018 | – | – | –
C[C@H](Nc1cc(C(F)(F)F)c(-c2sc(C(=O)NCC(C)(C)O)nc2C(=O)N2CCC[C@@H]2C)cn1)C(F)(F)F [Example 78, N-(2-Hydroxy-2-methylpropyl)-4-((S)-2-methylpyrrolidine-1-carbonyl)-5-(4-(trifluoromethyl)-6-(((S)-1,1,1-trifluoropropan-2-yl)amino)pyridin-3-yl)thiazole-2-carboxamide] | 110* % | – | – | 0.049 | 0.014 | – | – | –
C[C@H](Nc1cc(C(F)(F)F)c(-c2sc(C(=O)NCC(C)(C)O)nc2C(=O)N2C3CCC2CC3)cn1)C1CC1 [Example 51, 4-((1s,4s)-7-Azabicyclo[2.2.1]heptane-7-carbonyl)-5-(6-(((S)-1-cyclopropylethyl)amino)-4-(trifluoromethyl)pyridin-3-yl)-N-(2-hydroxy-2-methylpropyl)thiazole-2-carboxamide] | 101* % | – | 0.021 | 0.0048 | – | – | – | –
C[C@H](NC(=O)c1nc(C(=O)N2CCC[C@@H]2C)c(-c2cnc(NC(C)(C)C)cc2C(F)(F)F)s1)C(C)(C)O [Example 336, 5-[6-(tert-Butylamino)-4-(trifluoromethyl)-3-pyridyl]-N-[(1S)-2-hydroxy-1,2-dimethyl-propyl]-4-[(2S)-2-methylpyrrolidine-1-carbonyl]thiazole-2-carboxamide] | – | – | – | – | 0.011 | – | 108 | 0.0056
C[C@H](Nc1cc(C(F)F)c(-c2sc(C(=O)NCC(C)(C)O)nc2C(=O)N2CC(F)(F)C[C@@H]2C)cn1)C(F)(F)F [Example 135] | 100* % | – | – | 0.039 | 0.044 | – | – | –
C[C@H](Nc1cc(C(F)F)c(-c2sc(C(=O)NCC(C)(C)O)nc2C(=O)N2CCCC[C@@H]2C)cn1)C1CC1 [Example 37, 5-(6-(((S)-1-Cyclopropylethyl)amino)-4-(difluoromethyl)pyridin-3-yl)-N-(2-hydroxy-2-methylpropyl)-4-((S)-2-methylpiperidine-1-carbonyl)thiazole-2-carboxamide] | – | – | – | 0.014 | 0.052 | 92.2 | – | –
CC(C)(C)CNc1cc(C(F)F)c(-c2sc(C(=O)NCC(C)(C)O)nc2C(=O)N2C3CCC2CC3)cn1 [Example 116, 4-((1s,4s)-7-Azabicyclo[2.2.1]heptane-7-carbonyl)-5-(4-(difluoromethyl)-6-(neopentylamino)pyridin-3-yl)-N-(2-hydroxy-2-methylpropyl)thiazole-2-carboxamide] | 110* % | – | 0.044 | 0.034 | – | – | – | –
C[C@H]1CCCCN1C(=O)c1nc(C(=O)NCC(C)(C)O)sc1-c1cnc(NCC(C)(C)C)cc1C(F)(F)F [Example 86, (S)—N-(2-Hydroxy-2-methylpropyl)-4-(2-methylpiperidine-1-carbonyl)-5-(6-(neopentylamino)-4-(trifluoromethyl)pyridin-3-yl)thiazole-2-carboxamide] | 127* % | – | – | 0.013 | 0.0028 | – | – | –
CC(C)(O)CNC(=O)c1nc(C(=O)N2C3CCC2CC3)c(-c2cnc(NC3(C)CCC3)cc2C(F)(F)F)s1 [Example 140, 4-((1s,4s)-7-Azabicyclo[2.2.1]heptane-7-carbonyl)-N-(2-hydroxy-2-methylpropyl)-5-(6-((1-methylcyclobutyl)amino)-4-(trifluoromethyl)pyridin-3-yl)thiazole-2-carboxamide] | 89* % | – | 0.011 | 0.011 | – | – | – | –
